Values after ≈ are worked out from the molar mass of the structure shown.
What was measured:
Experiment in all cases: ≥ marks a high value that may be exact or a test limit, other limits are often not marked, values filed in µg/mL are converted to µM
Bacillus cereus = test system: Bacillus cereus
Escherichia coli = test system: Escherichia coli
Staphylococcus aureus = test system: Staphylococcus aureus
Bacillus subtilis = test system: Bacillus subtilis

| MIC (Bacillus cereus) [µM] | MIC (Escherichia coli) [µM] | MIC (Staphylococcus aureus) [µM] | MIC (Bacillus subtilis) [µM] | SMILES |
| --- | --- | --- | --- | --- |
| – | > 100 | – | ≥ 100 | CC[C@H](C)[C@H](N)C(=O)N[C@@H](CC(N)=O)C(=O)N[C@@H](CO)C(=O)N[C@@H](CC(C)C)C(=O)N[C@@H](CCCCN)C(=O)N[C@@H](CC(C)C)C(=O)NCC(=O)N[C@@H](CCCCN)C(=O)N[C@@H](CCCCN)C(=O)N[C@H](C(=O)N[C@@H](CC(C)C)C(=O)NCC(=O)N[C@@H](C)C(=O)N[C@@H](CC(C)C)C(N)=O)[C@@H](C)CC [INSLKLGKKILGAL] |
| – | 44.9 (≈ 81.7 µg/mL) | 0.769 (≈ 1.4 µg/mL) | 0.352 (≈ 0.64 µg/mL) | CC[C@H](C)[C@H](NC(=O)[C@H](CC(C)C)NC(=O)[C@H](C)NC(=O)[C@@H]1CCCN1C(=O)[C@H](CC(C)C)NC(=O)CN)C(=O)N[C@@H](CC(C)C)C(=O)N[C@@H](Cc1c[nH]c2ccccc12)C(=O)N[C@H](C(=O)N[C@@H](CCCCN)C(=O)N[C@@H](CCCN=C(N)N)C(=O)N[C@@H](CCCCN)C(=O)N[C@@H](CCCN=C(N)N)C(=O)N[C@@H](CCC(N)=O)C(=O)N[C@@H](CCC(N)=O)C(N)=O)[C@@H](C)CC [GLPALILWIKRKRQQ] |
| ≥ 57.5 | 57.5 (≈ 128 µg/mL) | > 57.5 | – | CC(C)C[C@H](NC(=O)[C@@H](N)Cc1ccccc1)C(=O)NCC(=O)N[C@H](C(=O)N[C@H](C(=O)N[C@@H](Cc1ccccc1)C(=O)N[C@@H](CCCCN)C(=O)N[C@@H](CCCCN)C(=O)N[C@@H](C)C(=O)N[C@@H](CO)C(=O)N[C@@H](CCCCN)C(=O)N[C@H](C(=O)N[C@@H](Cc1ccccc1)C(=O)N1CCC[C@H]1C(=O)N[C@@H](CCCCN)C(=O)N[C@H](C(=O)N[C@@H](Cc1ccccc1)C(=O)NCC(=O)N[C@@H](CCCCN)C(=O)N[C@H](C(=O)O)C(C)C)C(C)C)C(C)C)C(C)C)C(C)C [FLGVVFKKASKVFPKVFGKV] |

Second part, the compound before the results:

| SMILES | MIC (Bacillus cereus) [µM] | MIC (Escherichia coli) [µM] | MIC (Staphylococcus aureus) [µM] | MIC (Bacillus subtilis) [µM] |
| --- | --- | --- | --- | --- |
| CC(C)C[C@H](NC(=O)[C@H](CCCCN)NC(=O)[C@H](Cc1ccccc1)NC(=O)[C@@H](NC(=O)[C@@H](NC(=O)CNC(=O)[C@H](CC(C)C)NC(=O)[C@@H](N)Cc1ccccc1)C(C)C)C(C)C)C(=O)N[C@@H](C)C(=O)N[C@@H](CO)C(=O)N[C@@H](CCCCN)C(=O)N[C@H](C(=O)N[C@@H](Cc1ccccc1)C(=O)N1CCC[C@H]1C(=O)N[C@@H](C)C(=O)N[C@H](C(=O)N[C@@H](Cc1ccccc1)C(=O)NCC(=O)N[C@@H](CCCCN)C(=O)N[C@H](C(N)=O)C(C)C)C(C)C)C(C)C [FLGVVFKLASKVFPAVFGKV] | 7.43 (≈ 16 µg/mL) | 29.7 (≈ 64 µg/mL) | 1.86 (≈ 4 µg/mL) | – |
| CC[C@H](C)[C@H](NC(=O)[C@H](CC(C)C)NC(=O)[C@H](C)NC(=O)[C@H](CC(C)C)NC(=O)[C@H](CC(C)C)NC(=O)CN)C(=O)N[C@@H](CO)C(=O)N[C@@H](Cc1c[nH]c2ccccc12)C(=O)N[C@H](C(=O)N[C@@H](CCCCN)C(=O)N[C@@H](CCCN=C(N)N)C(=O)N[C@@H](CCCCN)C(=O)N[C@@H](CCCN=C(N)N)C(=O)N[C@@H](CCC(N)=O)C(=O)N[C@@H](CCC(N)=O)C(N)=O)[C@@H](C)CC [GLLALISWIKRKRQQ] | – | 39.1 (≈ 70.8 µg/mL) | 0.663 (≈ 1.2 µg/mL) | 1.22 (≈ 2.2 µg/mL) |
| CC(C)C[C@H](NC(=O)[C@H](CCCCN)NC(=O)[C@H](Cc1ccccc1)NC(=O)[C@@H](NC(=O)CNC(=O)CNC(=O)[C@H](CC(C)C)NC(=O)[C@@H](N)Cc1ccccc1)C(C)C)C(=O)N[C@@H](C)C(=O)N[C@@H](CO)C(=O)N[C@@H](CCCCN)C(=O)N[C@H](C(=O)N[C@@H](Cc1ccccc1)C(=O)N1CCC[C@H]1C(=O)N[C@@H](C)C(=O)N[C@H](C(=O)N[C@@H](Cc1ccccc1)C(=O)NCC(=O)N[C@@H](CCCCN)C(=O)N[C@H](C(=O)O)C(C)C)C(C)C)C(C)C [FLGGVFKLASKVFPAVFGKV] | 15.2 (≈ 32 µg/mL) | 30.3 (≈ 64 µg/mL) | 30.3 (≈ 64 µg/mL) | – |
| CC[C@H](C)[C@H](NC(=O)[C@H](CCCN=C(N)N)NC(=O)CNC(=O)[C@@H](NC(=O)[C@H](Cc1ccccc1)NC(=O)[C@@H]1CCCN1C(=O)[C@H](CC(C)C)NC(=O)[C@@H](N)Cc1ccccc1)C(C)C)C(=O)N[C@@H](C)C(=O)N[C@@H](CO)C(=O)N[C@@H](CCCCN)C(=O)N[C@H](C(=O)N[C@H](C(=O)N1CCC[C@H]1C(=O)N[C@@H](CO)C(=O)N[C@H](C(=O)N[C@H](C(=O)NCC(=O)N[C@@H](CCCCN)C(=O)N[C@H](C(=O)O)C(C)C)[C@@H](C)CC)C(C)C)C(C)C)C(C)C [FLPFVGRIASKVVPSVIGKV] | ≥ 121 | > 121 | – | – |

From DBAASP
